Experimental data taken from patent US7998995B2 (Exelixis Patent Company LLC, priority 2006, dated 2011).

Tested on: T1, LXR
T1 construct: fused on or other part: GST fused to the LBD in the FRET assay
Assay: Measured EC50 or IC50 for LXR (LXRα and/or LXRβ; assay and subtype not given)
Conditions: IC50 or EC50 class, subtype not specified
Description: Measured EC50 or IC50 for LXR, and FXR for Compounds of the Invention
LXR and FXR activities for various compounds of the invention are presented in the following table; those compounds with EC50 or IC50 values <10 μM for at least one of LXRα, LXRβ or FXR are considered to be active. In the following Table, IC50 or EC50 data is represented as follows: A<1 μM, B=1-10 μm, and C>10 μM.

## CS(=O)(=O)c1cccc(-c2ccc(NCc3cc(C(F)(F)F)nn3-c3ccccc3Cl)cc2)c1 [Example 928, N-{[1-(2-chlorophenyl)-3-(trifluoromethyl)-1H-pyrazol-5-yl]methyl}-3′-(methylsulfonyl)biphenyl-4-amine]
  EC50: < 1000 nM

## COc1cc(-c2ccc(-c3cccc(S(C)(=O)=O)c3)s2)n(-c2ccccc2Cl)n1 [Example 933, 1-(2-chlorophenyl)-3-(methyloxy)-5-{5-[3-(methylsulfonyl)phenyl]-2-thienyl}-1H-pyrazole]
  EC50: > 10000 nM

## CC1(C)COC(c2cn(-c3ccc(-c4cccc(S(C)(=O)=O)c4)cc3Cl)c(-c3c(Cl)cccc3Cl)n2)=N1 [Example 934, 2-{1-[3-chloro-3′-(methylsulfonyl)biphenyl-4-yl]-2-(2,6-dichlorophenyl)-1H-imidazol-4-yl}-4,4-dimethyl-4,5-dihydro-1,3-oxazole]
  EC50: < 1000 nM

## CCS(=O)(=O)c1cccc(-c2ccc(-n3cc(C4=NC(C)(C)CO4)nc3-c3c(Cl)cccc3Cl)c(Cl)c2)c1 [Example 935, 2-{1-[3-chloro-3′-(ethylsulfonyl)biphenyl-4-yl]-2-(2,6-dichlorophenyl)-1H-imidazol-4-yl}-4,4-dimethyl-4,5-dihydro-1,3-oxazole]
  EC50: < 1000 nM

## CS(=O)(=O)c1cccc(-c2ccc(-n3cc(C4=NCCO4)nc3-c3c(Cl)cccc3Cl)c(Cl)c2)c1 [Example 936, 2-{1-[3-chloro-3′-(methylsulfonyl)biphenyl-4-yl]-2-(2,6-dichlorophenyl)-1H-imidazol-4-yl}-4,5-dihydro-1,3-oxazole]
  EC50: < 1000 nM

## CC1CN=C(c2cn(-c3ccc(-c4cccc(S(C)(=O)=O)c4)cc3Cl)c(-c3c(Cl)cccc3Cl)n2)O1 (stereo not shown) [Example 937, 2-{1-[3-chloro-3′-(methylsulfonyl)biphenyl-4-yl]-2-(2,6-dichlorophenyl)-1H-imidazol-4-yl}-5-methyl-4,5-dihydro-1,3-oxazole]
  EC50: < 1000 nM

## CC1COC(c2cn(-c3ccc(-c4cccc(S(C)(=O)=O)c4)cc3Cl)c(-c3c(Cl)cccc3Cl)n2)=N1 (stereo not shown) [Example 938, 2-{1-[3-chloro-3′-(methylsulfonyl)biphenyl-4-yl]-2-(2,6-dichlorophenyl)-1H-imidazol-4-yl}-4-methyl-4,5-dihydro-1,3-oxazole]
  EC50: < 1000 nM

## CC1(C)COC(c2cn(-c3ccc(-c4cccc(S(C)(=O)=O)c4)cc3)c(-c3c(Cl)cccc3Cl)n2)=N1 [Example 939, 2-{2-(2,6-dichlorophenyl)-1-[3′-(methylsulfonyl)biphenyl-4-yl]-1H-imidazol-4-yl}-4,4-dimethyl-4,5-dihydro-1,3-oxazole]
  EC50: < 1000 nM

## CC1(C)CSC(c2cn(-c3ccc(-c4cccc(S(C)(=O)=O)c4)cc3Cl)c(-c3c(Cl)cccc3Cl)n2)=N1 [Example 940, 2-{1-[3-chloro-3′-(methylsulfonyl)biphenyl-4-yl]-2-(2,6-dichlorophenyl)-1H-imidazol-4-yl}-4,4-dimethyl-4,5-dihydro-1,3-thiazole]
  EC50: < 1000 nM

## CS(=O)(=O)c1cccc(-c2ccc(-n3cc(C4=NCCN4)nc3-c3c(Cl)cccc3Cl)c(Cl)c2)c1 [Example 941, 1′-[3-chloro-3′-(methylsulfonyl)biphenyl-4-yl]-2′-(2,6-dichlorophenyl)-4,5-dihydro-1H,1′H-2,4′-biimidazole]
  EC50: 1000 to 10000 nM

## CC1(C)CN=C(c2cn(-c3ccc(-c4cccc(S(C)(=O)=O)c4)cc3Cl)c(-c3c(Cl)cccc3Cl)n2)N1 [Example 942, 1′-[3-chloro-3′-(methylsulfonyl)biphenyl-4-yl]-2′-(2,6-dichlorophenyl)-5,5-dimethyl-4,5-dihydro-1H,1′H-2,4′-biimidazole]
  EC50: > 10000 nM

## CC1(C)CN=C(c2cn(-c3ccc(-c4cccc(S(C)(=O)=O)c4)cc3)c(-c3c(Cl)cccc3Cl)n2)N1 [Example 943, 2′-(2,6-dichlorophenyl)-5,5-dimethyl-1′-[3′-(methysulfonyl)biphenyl-4-yl]-4,5-dihydro-1H,1′H-2,4′-biimidazole]
  EC50: > 10000 nM

## Cc1noc(-c2cn(-c3ccc(-c4cccc(S(C)(=O)=O)c4)cc3Cl)c(-c3c(Cl)cccc3Cl)n2)n1 [Example 944, 5-{1-[3-chloro-3′-(methylsulfonyl)biphenyl-4-yl]-2-(2,6-dichlorophenyl)-1H-imidazol-4-yl}-3-methyl-1,2,4-oxadiazole]
  EC50: < 1000 nM

## CC(C)(c1ccccc1Cl)c1nc(C2CCCN2)cn1-c1ccc(-c2cccc(S(C)(=O)=O)c2)cc1 (stereo not shown) [Example 976, 2-[1-(2-Chlorophenyl)-1-methylethyl]-1-[3′-(methylsulfonyl)biphenyl-4-yl]-4-pyrrolidin-2-yl-1H-imidazole]
  EC50: 1000 to 10000 nM

## COC(=O)N1CCCC1c1cn(-c2ccc(-c3cccc(S(C)(=O)=O)c3)cc2)c(C(C)(C)c2ccccc2Cl)n1 (stereo not shown) [Example 977, Methyl 2-{2-[1-(2-chlorophenyl)-1-methylethyl]-1-[3′-(methylsulfonyl)biphenyl-4-yl]-1H-imidazol-4-yl}pyrrolidine-1-carboxylate]
  EC50: < 1000 nM

## CC(=O)N1CCCC1c1cn(-c2ccc(-c3cccc(S(C)(=O)=O)c3)cc2)c(C(C)(C)c2ccccc2Cl)n1 (stereo not shown) [Example 978, 4-(1-acetylpyrrolidin-2-yl)-2-[1-(2-chlorophenyl)-1-methylethyl]-1-[3′-(methylsulfonyl)biphenyl-4-yl]-1H-imidazole]
  EC50: < 1000 nM

## CN1CCCC1c1cn(-c2ccc(-c3cccc(S(C)(=O)=O)c3)cc2)c(C(C)(C)c2ccccc2Cl)n1 (stereo not shown) [Example 979, 2-[1-(2-chlorophenyl)-1-methylethyl]-4-(1-methylpyrrolidin-2-yl)-1-[3′-(methylsulfonyl)biphenyl-4-l]-1H-imidazole]
  EC50: 1000 to 10000 nM

## CS(=O)(=O)c1cccc(-c2ccc(-n3cc(C4(O)CC4)nc3-c3ccccc3Cl)cc2)c1 [Example 980, 1-(2-(2-chlorophenyl)-1-(3′-(methylsulfonyl)biphenyl-4-yl)-1H-imidazol-4-yl)cyclopropanol]
  EC50: < 1000 nM

## CS(=O)(=O)c1cccc(-c2ccc(-n3cc(C4(O)CCCC4)nc3-c3ccccc3Cl)cc2)c1 [Example 981, 1-(2-(2-chlorophenyl)-1-(3′-(methylsulfonyl)biphenyl-4-yl)-1H-imidazol-4-yl)cyclopentanol]
  EC50: 1000 to 10000 nM

## CC1(C)CC(=O)C=C(c2cn(-c3ccc(-c4cccc(S(C)(=O)=O)c4)cc3Cl)c(-c3ccccc3Cl)n2)O1 [Example 982, 6-[1-(3-Chloro-3′-methanesulfonyl-biphenyl-4-yl)-2-(2-chlorophenyl)-1-H-imidazol-4-yl]-2,2-dimethyl-2,3-dihydro-pyran-4-one]
  EC50: < 1000 nM

## CN1CC(c2cn(-c3ccc(-c4cccc(S(C)(=O)=O)c4)cc3Cl)c(-c3ccccc3Cl)n2)CC1=O (stereo not shown) [Example 984, 4-[1-(3-Chloro-3′-methanesulfonyl-biphenyl-4-yl)-2-(2-chlorophenyl)-1-H-imidazol-4-yl]-1-methyl-pyrrolidin-2-one]
  EC50: < 1000 nM

## CS(=O)(=O)c1cccc(-c2ccc(-n3cc(-c4cc(C(F)(F)F)on4)nc3-c3ccccc3Cl)c(Cl)c2)c1 [Example 990, 3-(1-(3-chloro-3′-(methylsulfonyl)biphenyl-4-yl)-2-(2-chlorophenyl)-1H-imidazol-4-yl)-5-(trifluoromethyl)isoxazole]
  EC50: 1000 to 10000 nM

## CS(=O)(=O)c1cccc(-c2ccc(-n3cc(C4CC4)nc3-c3ccccc3C(F)(F)F)cc2)c1 [Example 991, 4-cyclopropyl-1-(3′-(methylsulfonyl)biphenyl-4-yl)-2-(2-(trifluoromethyl)phenyl)-1H-imdazole]
  EC50: < 1000 nM

## CS(=O)(=O)c1cccc(-c2ccc(-n3cc(-c4ccsc4)nc3-c3cccc(Cl)c3Cl)cc2)c1 [Example 992, 2-(2,3-dichlorophenyl)-1-(3′-(methylsulfonyl)biphenyl-4-yl)-4-(thiophen-3-yl)-1H-imidazole]
  EC50: < 1000 nM

## Cc1cscc1-c1cn(-c2ccc(-c3cccc(S(C)(=O)=O)c3)cc2)c(-c2ccccc2C(F)(F)F)n1 [Example 993, 1-(3′-(methylsulfonyl)biphenyl-4-yl)-4-(4-methylthiophen-3-yl)-2-(2-(trifluoromethyl)phenyl)-1H-imidazole]
  EC50: 1000 to 10000 nM

## Cn1cc(-c2cn(-c3ccc(-c4cccc(S(C)(=O)=O)c4)cc3)c(-c3ccccc3C(F)(F)F)n2)cn1 [Example 994, 1-methyl-4-(1-(3′-(methylsulfonyl)biphenyl-4-yl)-2-(2-(trifluoromethyl)phenyl)-1H-imidazol-4-yl)-1H-pyrazole]
  EC50: < 1000 nM

## CS(=O)(=O)c1cccc(-c2ccc(-n3cc(-c4ccoc4)nc3-c3ccccc3C(F)(F)F)cc2)c1 [Example 995, 4-(furan-3-yl)-1-(3′-(methylsulfonyl)biphenyl-4-yl)-2-(2-(trifluoromethyl)phenyl)-1H-imidazole]
  EC50: < 1000 nM

## CS(=O)(=O)c1cccc(-c2ccc(-n3cc(-c4ccsc4)nc3-c3ccccc3C(F)(F)F)cc2)c1 [Example 996, 1-(3′-(methylsulfonyl)biphenyl-4-yl)-4-(thiophen-3-yl)-2-(2-(trifluoromethyl)phenyl)-1H-imidazole]
  EC50: < 1000 nM

## CS(=O)(=O)c1cccc(-c2ccc(-n3cc(-c4ccsc4)nc3-c3ccccc3Cl)c(Cl)c2)c1 [Example 997, 1-(3-chloro-3′-(methylsulfonyl)biphenyl-4-yl)-2-(2-chlorophenyl)-4-(thiophen-3-yl)-1H-imidazole]
  EC50: < 1000 nM

## CS(=O)(=O)c1cccc(-c2ccc(-n3cc(N4CCC4)nc3-c3ccccc3C(F)(F)F)cc2)c1 [Example 998, 4-(azetidin-1-yl)-1-(3′-(methylsulfonyl)biphenyl-4-yl)-2-(2-(trifluoromethyl)phenyl)-1H-imidazole]
  EC50: < 1000 nM

## CS(=O)(=O)c1cccc(-c2ccc(-n3cc(-n4cccn4)nc3-c3c(Cl)cccc3Cl)cc2)c1 [Example 999, 1-{2-(2,6-dichlorophenyl)-1-[3′-(methylsulfonyl)biphenyl-4-yl]-1H-imidazol-4-yl}-1H-pyrazole]
  EC50: < 1000 nM
